Test results: patent publication US20080226718A1, “Indole and Azaindole Derivatives For the Treatment of Inflammatory and Autoimmune Diseases” (Brane Discovery S.r.l, priority 2005, published 2008)

Tested on: encephalitogenic lymphocytes
Test: Chemokine-induced adhesion of murine encephalitogenic T cells to ICAM-1
Assay type: cell-based, SJL mice
Conditions: for Chemokine-induced Adhesion in encephalitogenic lymphocytes, Mean counts ± S.D., in presence of MIP3-β stimulation: 1 μM CCL19 (MIP-3beta); for Chemokine-induced Adhesion in encephalitogenic lymphocytes, Mean counts ± S.D., in presence of MIP3-β stimulation / Adhesion in encephalitogenic lymphocytes, Mean counts ± S.D., in absence of MIP3-β stimulation: ICAM-1
Method in brief: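 Murine PLP139-151-reactive T cells from immunized SJL mice were pretreated with compound (5-50 μM, 37° C., 30-60 min or 1 h), then stimulated with 1 μM CCL19 (2-3 min, static) on ICAM-1-coated glass. Bound cells counted after washing and fixation; values are mean counts ±S.D of three experiments.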

COC(=O)c1[nH]c2cc(OC)c(OC)cc2c1-c1ccc(OC)cc1 [Example 1]
Block of chemokine-induced autoreactive lymphocyte adhesion, in words (5-50 μM for 1 h, 1 μM CCL19): almost complete block
Chemokine-induced Adhesion in encephalitogenic lymphocytes, Mean counts ± S.D., in presence of MIP3-β stimulation ([cpd] 5 μM): 10.3 ± 1.0
Adhesion in encephalitogenic lymphocytes, Mean counts ± S.D., in absence of MIP3-β stimulation ([cpd] 5 μM): 1.3 ± 1.0
Chemokine-induced Adhesion in encephalitogenic lymphocytes, Mean counts ± S.D., in presence of MIP3-β stimulation ([cpd] 10 μM): 7.0 ± 1.0
Adhesion in encephalitogenic lymphocytes, Mean counts ± S.D., in absence of MIP3-β stimulation ([cpd] 10 μM): 1.0 ± 1.0
Chemokine-induced Adhesion in encephalitogenic lymphocytes, Mean counts ± S.D., in presence of MIP3-β stimulation ([cpd] 25 μM): 5.3 ± 2.0
Adhesion in encephalitogenic lymphocytes, Mean counts ± S.D., in absence of MIP3-β stimulation ([cpd] 25 μM): 0.4 ± 0.2
Chemokine-induced Adhesion in encephalitogenic lymphocytes, Mean counts ± S.D., in presence of MIP3-β stimulation ([cpd] 50 μM): 3.2 ± 1.0
Adhesion in encephalitogenic lymphocytes, Mean counts ± S.D., in absence of MIP3-β stimulation ([cpd] 50 μM): 0.4 ± 0.1
